The term IC50 denotes the concentration at which inhibition is half-maximal.

One experiment concerns the target T1, TAK1-TAB1 fusion protein (Homo sapiens, UniProt O43318).
T1 construct: purchased Carna
T1 sequence (O43318 with tags, fused parts or gaps limits assumed): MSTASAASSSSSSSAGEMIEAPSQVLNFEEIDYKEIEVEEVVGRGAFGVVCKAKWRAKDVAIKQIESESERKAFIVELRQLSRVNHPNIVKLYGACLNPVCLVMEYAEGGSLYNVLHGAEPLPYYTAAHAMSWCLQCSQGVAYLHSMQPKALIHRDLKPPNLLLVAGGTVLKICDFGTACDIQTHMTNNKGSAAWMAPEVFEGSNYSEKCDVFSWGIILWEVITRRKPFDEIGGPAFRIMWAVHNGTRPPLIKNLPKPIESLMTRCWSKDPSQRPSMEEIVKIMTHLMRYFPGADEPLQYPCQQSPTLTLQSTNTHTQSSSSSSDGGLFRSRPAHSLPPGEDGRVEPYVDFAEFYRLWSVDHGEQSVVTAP
The experiment is described as follows: TAK1 biochemical assay (AlphaScreen, GST-MAP2K7 substrate). As to conditions: TAK1-TAB1 fusion protein, GST-MAP2K7 substrate; read-out: mean TAK1 IC50 (Col. A). Background: In Alpha technology, singlet oxygen from a donor bead excites a nearby acceptor bead.

In a further experiment the test system is p-p38 in HCT-116 cells. The experiment can be described thus: Phospho-p38 Meso Scale ELISA assay, TNFα-stimulated HCT-116 cells. As to conditions: Homo sapiens, read-out: mean HCT-116 p-p38 ELISA IC50 (Col. C). It is filed as cell-based. Here is the method: Detailed below are ELISA assays for pJNK and p38, and a TAK1 biochemical assay. […] In Table 1, Col.
• 1. Plate HCT-116 cells at 25,000 per well in 100 uL in 96 well clear dishes in normal growth medium. Day 2: • 1. Aspirate medium and replace with 90 μl reduced serum growth medium (1% FCS), incubate for 2 hours at 37° C. • 2. Make drugs at 10× in reduced serum medium and add 10 uL per well. • 3. Incubate at 37° C. for 4 hrs. • 4. Bring capture plates to room temperature. • 5. Block with 150 μl Blocking Solution (provided with kit) (600 mg Blocker A into 20 mL 1× Wash Buffer per plate) at room temperature with shaking. • 6. Wash plates 4× with 200 μl 1× wash buffer (10× provided with kit) before transferring lysates. • 7. Dilute TNFα to […] in reduced serum medium (this makes a 10× working stock). • 8. Add 10 μl TNFα to all wells except negative control wells, final concentration is 10 ng/mL. • 9. Incubate at 37° C. for 10 minutes. • 10. Remove medium by flicking into sink • 11. Wash cells with 100 uL ice cold PBS. • 12. Remove PBS by flicking into sink and patting on paper towels. • 13. Lyse cells in 50 μl ice cold 1× Complete Lysis Buffer plus Phosphatase and Protease inhibitors (all provided with kit) (10 mL Tris Lysis Buffer+200 μl Protease inhibitor solution+100 μl Phosphatase inhibitor I+100 μl Phosphatase inhibitor II). • 14. Incubate with shaking at 4° C. for 30 minutes. • 15. Transfer 45 μl to capture plate, cover with adhesive cover, and incubate at 4° C. over night with shaking. • Day 3: • 1. Wash plates 4× with 200 μl 1× wash buffer (10× provided with kit). • 2. […] Incubate at room temperature with shaking for 1 hour. • 4. Wash 4× with 200 μl 1× Wash Buffer. • 5. […] Read on Sector Imager. Phospho-p38 Meso Scale ELISA Assay Day 1: • 1. Plate HCT-116 cells at 25,000 per well in 100 uL in 96 well clear dishes in normal growth medium. zday 2: • 1. Aspirate medium and replace with 90 μl reduced serum growth medium (1% FCS), incubate for 2 hours at 37° C. • 2. Make drugs at 10× in reduced serum medium and add 10 uL per well. • 3. Incubate at 37° C. for 4 hrs. • 4. Bring capture plates to room temperature. • 5. Block with 150 μl Blocking Solution (provided with kit) (600 mg Blocker A into 20 mL 1× Wash Buffer per plate) at room temperature with shaking. • 6. Wash plates 4× with 200 μl 1× wash buffer (10× provided with kit) before transferring lysates. • 7. Dilute TNFα to […] in reduced serum medium (this makes a 10× working stock). • 8. Add 10 μl TNFα to all wells except negative control wells, final concentration is 10 ng/mL. • 9. Incubate at 37° C. for 10 minutes. • 10. Remove medium by flicking into sink • 11. Wash cells with 100 uL ice cold PBS. • 12. Remove PBS by flicking into sink and patting on paper towels. • 13. Lyse cells in 50 μl ice cold 1× Complete Lysis Buffer plus phosphatase and protease inhibitors (all provided with kit) (10 mL Tris Lysis Buffer+200 μl Protease inhibitor solution+100 μl Phosphatase inhibitor I+100 μl Phosphatase inhibitor II). • 14. Incubate with shaking at 4° C. for 30 minutes. • 15. Dilute lysates before transferring to capture plate with 100 μl Complete p38 Lysate • Dilution Buffer (provided with kit) (10 mL of Diluent 20±200 μl Protease inhibitor solution+100 μl Phosphatase inhibitor I+100 μl Phosphatase inhibitor II). • 16. Transfer 50 μl of diluted lysates to capture plate, cover with adhesive cover, and incubate at 4° C. over night with shaking. Day 3: • 1. Wash plates 4× with 200 μl 1× wash buffer (10× provided with kit). • 2. […] Incubate at room temperature with shaking for 1 hour. • 4. Wash 4× with 200 μl 1× Wash Buffer. • 5. […] Read on Sector Imager. TAK1 Biochemical Assay
A general note: In an ELISA, binding on a coated surface is turned into a signal by an enzyme label.

The next experiment has as its system pJNK in HCT-116 cells. The experiment is described as follows: Phospho-JNK (Thr183/Tyr185) Meso Scale ELISA assay, TNFα-stimulated HCT-116 cells. As to conditions: Homo sapiens, read-out: mean HCT-116 pJNK ELISA IC50 (Col. B). It is filed as cell-based. Summed up: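 Meso Scale ELISA read of phospho-JNK (Thr183/Tyr185) in lysed HCT-116 cells. Cells were serum-reduced to 1% FCS for 2 hours, exposed to test drug for 4 hrs at 37° C, then given 10 ng/mL TNFα (final) for 10 minutes before lysis.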

Counter-ions that a name gives are not always drawn.

`Nc1ncc(-c2cnn([C@H]3CC[C@H](O)CC3)c2)c2cc(-c3c(F)ccc4cnsc34)oc12` [Example 240, trans-4-{4-[7-amino-2-(6-fluoro-1,2-benzothiazol-7-yl)furo[2,3-c]pyridin-4-yl]-1H-pyrazol-1-yl}cyclohexanol diformate salt]: the results for the half-inhibitory concentration (IC50) on TAK1-TAB1 fusion protein, in the experiment on p-p38 in HCT-116 cells and in the experiment with pJNK in HCT-116 cells were 100 to 1000 nM, 100 to 1000 nM and under 100 nM, respectively.
On to `CSc1ccc(-c2cc3c(-c4cnn(C5CCN(C(C)=O)CC5)c4)cnc(N)c3o2)cc1` [Example 113, 1-[4-(4-{7-amino-2-[4-(methylsulfanyl)phenyl]furo[2,3-c]pyridin-4-yl}-1H-pyrazol-1-yl)piperidin-1-yl]ethanone], for which the IC50 on TAK1-TAB1 fusion protein is over 10000 nM; with p-p38 in HCT-116 cells, 1000 to 10000 nM; in the experiment on pJNK in HCT-116 cells it was 1000 to 10000 nM.
Regarding `CC(=O)c1cccc(-c2cc3c(-c4cnn(C5CCN(C(C)=O)CC5)c4)cnc(N)c3o2)c1` [Example 124, 1-(4-{4-[2-(3-acetylphenyl)-7-aminofuro[2,3-c]pyridin-4-yl]-1H-pyrazol-1-yl}piperidin-1-yl)ethanone], the IC50 fell in the range of 1000 to 10000 nM at TAK1-TAB1 fusion protein, 1000 to 10000 nM with p-p38 in HCT-116 cells and 100 to 1000 nM in the experiment on pJNK in HCT-116 cells.
Regarding `CC(=O)N1CCC(n2cc(-c3cnc(N)c4oc(-c5ccccc5C)cc34)cn2)CC1` [Example 410, 1-(4-{4-[7-amino-2-(2-methylphenyl)furo[2,3-c]pyridin-4-yl]-1H-pyrazol-1-yl}piperidin-1-yl)ethanone], the results for the half-inhibitory concentration (IC50) on TAK1-TAB1 fusion protein, in the experiment with p-p38 in HCT-116 cells and with pJNK in HCT-116 cells were 100 to 1000 nM, 1000 to 10000 nM and 100 to 1000 nM, respectively.
As for `CC(=O)N1CCC(n2cc(-c3cnc(N)c4oc(-c5ccc(O)c(Cl)c5)cc34)cn2)CC1` [Example 136, 1-(4-{4-[7-amino-2-(3-chloro-4-hydroxyphenyl)furo[2,3-c]pyridin-4-yl]-1H-pyrazol-1-yl}piperidin-1-yl)ethanone], the results for the IC50 on TAK1-TAB1 fusion protein, with p-p38 in HCT-116 cells and in the experiment on pJNK in HCT-116 cells were 100 to 1000 nM, 1000 to 10000 nM and 100 to 1000 nM, respectively.
With `CC(=O)N1CCC(n2cc(-c3cnc(N)c4oc(-c5ccc6scnc6c5)cc34)cn2)CC1` [Example 107, 1-(4-{4-[7-amino-2-(1,3-benzothiazol-5-yl)furo[2,3-c]pyridin-4-yl]-1H-pyrazol-1-yl}piperidin-1-yl)ethanone], the IC50 on TAK1-TAB1 fusion protein, with p-p38 in HCT-116 cells and with pJNK in HCT-116 cells was 100 to 1000 nM throughout.
For the compound `COCC(=O)N1CCC(n2cc(-c3cnc(N)c4oc(-c5cccc6cnccc56)cc34)cn2)CC1` [Example 50, 1-(4-{4-[7-amino-2-(isoquinolin-5-yl)furo[2,3-c]pyridin-4-yl]-1H-pyrazol-1-yl}piperidin-1-yl)-2-methoxyethanone], the IC50 on TAK1-TAB1 fusion protein, in the experiment on p-p38 in HCT-116 cells and in the experiment with pJNK in HCT-116 cells was 100 to 1000 nM in each case.
For the compound `CCN1CCC(n2cc(-c3cnc(N)c4oc(-c5cccc6cnccc56)cc34)cn2)CC1` [Example 78, 4-[1-(1-ethylpiperidin-4-yl)-1H-pyrazol-4-yl]-2-(isoquinolin-5-yl)furo[2,3-c]pyridin-7-amine], the half-inhibitory concentration (IC50) at TAK1-TAB1 fusion protein, with p-p38 in HCT-116 cells and in the experiment on pJNK in HCT-116 cells was 100 to 1000 nM throughout.
Turning to `CC(=O)N1CCC(n2cc(-c3cnc(N)c4oc(-c5ccc6c(c5)C(=O)NC6)cc34)cn2)CC1` [Example 96, 6-{4-[1-(1-acetylpiperidin-4-yl)-1H-pyrazol-4-yl]-7-aminofuro[2,3-c]pyridin-2-yl}-2,3-dihydro-1H-isoindol-1-one], the 50% inhibitory concentration (IC50) at TAK1-TAB1 fusion protein was 100 to 1000 nM; in the experiment with p-p38 in HCT-116 cells, over 10000 nM; in the experiment on pJNK in HCT-116 cells, 1000 to 10000 nM.
The corresponding values for `CC(=O)N1CCC(n2cc(-c3cnc(N)c4oc(-c5ccccc5CC#N)cc34)cn2)CC1` [Example 215, (2-{4-[1-(1-acetylpiperidin-4-yl)-1H-pyrazol-4-yl]-7-aminofuro[2,3-c]pyridin-2-yl}phenyl)acetonitrile] are 100 to 1000 nM, 100 to 1000 nM and 100 to 1000 nM.
The corresponding values for `CC(=O)N1CCC(n2cc(-c3cnc(N)c4oc(-c5cccc6ccnn56)cc34)cn2)CC1` [Example 197, 1-(4-{4-[7-amino-2-(pyrazolo[1,5-a]pyridin-7-yl)furo[2,3-c]pyridin-4-yl]-1H-pyrazol-1-yl}piperidin-1-yl)ethanone] are 100 to 1000 nM, 100 to 1000 nM and 100 to 1000 nM.
With `Nc1ncc(-c2cc[nH]c2)c2cc(-c3csc4cnccc34)oc12` [Example 376, 4-(1H-pyrrol-3-yl)-2-thieno[2,3-c]pyridin-3-yl-furo[2,3-c]pyridin-7-ylamine], the IC50 is 1000 to 10000 nM at TAK1-TAB1 fusion protein, 1000 to 10000 nM in the experiment with p-p38 in HCT-116 cells and 100 to 1000 nM in the experiment on pJNK in HCT-116 cells.
Turning to `Cc1sc2cnccc2c1-c1cc2c(-c3cnn([C@H]4CC[C@H](O)CC4)c3)cnc(N)c2o1` [Example 252, trans-4-{4-[7-amino-2-(2-methylthieno[2,3-c]pyridin-3-yl)furo[2,3-c]pyridin-4-yl]-1H-pyrazol-1-yl}cyclohexanol trifluoroacetate], the 50% inhibitory concentration (IC50) at TAK1-TAB1 fusion protein and in the experiment with p-p38 in HCT-116 cells was 100 to 1000 nM in each case.
On to `CC(=O)N1[C@@H]2CC[C@H]1C[C@H](n1cc(-c3cnc(N)c4oc(-c5csc6cnccc56)cc34)cn1)C2` [Example 325, 1-[(3-exo)-3-{4-[7-amino-2-(thieno[2,3-c]pyridin-3-yl)furo[2,3-c]pyridin-4-yl]-1H-pyrazol-1-yl}-8-azabicyclo[3.2.1]oct-8-yl]ethanone], for which the IC50 on TAK1-TAB1 fusion protein and with pJNK in HCT-116 cells was under 100 nM in each case.
As to `Cc1c(-c2cccc3nnsc23)oc2c(N)ncc(-c3cnn([C@H]4CC[C@H](O)CC4)c3)c12` [Example 362, trans-4-{4-[7-amino-2-(1,2,3-benzothiadiazol-7-yl)-3-methylfuro[2,3-c]pyridin-4-yl]-1H-pyrazol-1-yl}cyclohexanol], the concentration for half-maximal inhibition (IC50) on TAK1-TAB1 fusion protein and in the experiment on pJNK in HCT-116 cells was under 100 nM in each case.
Regarding `Nc1ncc(-c2cnn([C@H]3CC[C@H](O)CC3)c2)c2c(Cl)c(-c3cccc4cnsc34)oc12` [Example 285, trans-4-{4-[7-amino-2-(1,2-benzothiazol-7-yl)-3-chlorofuro[2,3-c]pyridin-4-yl]-1H-pyrazol-1-yl}cyclohexanol trifluoroacetic Acid Salt], the IC50 on TAK1-TAB1 fusion protein and in the experiment on pJNK in HCT-116 cells was 100 to 1000 nM in each case.

The values are drawn from patent publication US8378104B2 (OSI Pharmaceuticals, LLC, priority 2010, dated 2013).
